Measurements published in patent US7271198B2, “Method of treating autoimmune diseases” (Wake Forest University, priority 2000, dated 2007).

Experiments:
HDAC = conditions: statement from cited literature; cited from earlier work
TGF-β1 mRNA = assay: PCR of TGF-β1 mRNA in SLE and control T cells / PBMCs; assay type: cell-based, human; conditions: SLE PBMCs exposed to TSA and SAHA (summary statement)
Experimental: (§1) Gene expression of TGF-β1 was tested to determine if the gene expression is suppressed by deacetylation of histones in SLE. In this determination, SLE PBMCs or isolated T cells were treated with the histone deacetylase inhibitors (HDIs), TSA or SAHA, for 18hr. […] Subsequently, semi-quantitative PCR was performed to determine the amounts of […] transcripts in SLE and control T cells treated with vehicle or TSA (1000 ng/ml). […] There is no change in GAPDH transcript in normal and SLE T cells after treatment of HDIs. Increased TGF-β1 transcript was associated with a subsequent increase in TGF-β1 protein secretion by SLE PBMCs. When compared to vehicle treated PBMCs, total TGF-β1 protein in culture supernatants from SLE PBMCs increased by approximately 30%. In contrast, there was no increase in total TGF-β1 secretion in TSA treated cells in normal healthy controls. Similar results may be obtained by SAHA.

TGF-β1 protein = TGF-β1 protein secretion by PBMCs; assay type: cell-based, human; conditions: SLE PBMCs exposed to TSA and SAHA (summary statement)
Experimental: as §1

[1] = system: acetylated H3 and H4 histones; assay: Western immunoblot of acetylated H3 and H4 histones in SLE PBMCs; assay type: cell-based, human; conditions: 1000 ng/ml TSA or 20 μM SAHA, 18 hr
Experimental: The effect of TSA and SAHA was examined to determine if HDIs induce accumulation of acetylated histones in SLE PBMCs on the level of histone acetylation in SLE PBMCs. Following culture of PBMCs in the presence of vehicle, 1000 ng/ml TSA or 20 μM SAHA for 18 hr, histones were isolated.

IFN-γ mRNA = IFN-γ mRNA in MRL/lpr splenocytes; assay type: cell-based, mouse
Experimental: In determining whether TSA can down-regulate IFN-γ mRNA, splenocytes from older, 24-wk MRL/lpr mice were treated with 0 to 500 ng/ml of TSA for 18 hr. […] Compared to splenocytes from 10-wk old mice that had low IFN-γ mRNA (FIG. 8B, lane 1), older mice had higher constitutive levels of IFN-γ transcripts normalized to the housekeeping gene, GAPDH (FIG. 8A, lane 1). […] Maximal inhibition of IFN-γ transcript consistently occurred at 500 ng/ml of TSA.
To establish whether TSA or SAHA down-regulates Con A-induced IFN-γ mRNA expression, splenocytes from 10-wk old mice were stimulated with Con A (10 μg/ml) for 18 hr. From previous kinetic studies, IFN-γ mRNA is maximally expressed when T cells are activated for 18 hr. […] Thus, both TSA and SAHA inhibit IFN-γ. mRNA up-regulation in response to mitogenic stimulation.

IFN-γ protein = IFN-γ protein secretion by MRL/lpr splenocytes; assay type: cell-based, mouse; conditions: Con A-stimulated splenocytes from younger MRL/lpr mice, 72 hr; p=0.004
Text: The marked inhibition of IFN-γ transcript by these inhibitors prompted us to quantify IFN-γ protein secretion in splenocyte culture supernatants. Over 72 hr, Con A, but not LPS, stimulated splenocytes from younger MRL/lpr mice to secrete a mean (±SEM) 1,563.2±88.3 pg/ml of IFN-γ (FIG. 8D). […] Thus, inhibition of IFN-γ transcription by TSA and SAHA blocks secretion of IFN-γ protein by splenocytes.

[2] = system: IL-12 p35 and p40 transcripts; assay: IL-12 p35 and p40 transcripts in MRL/lpr splenocytes; assay type: cell-based, mouse; conditions: splenocytes from 10-wk old MRL/lpr mice preincubated 18 hr, stimulated 6 or 18 hr
Experimental: In this study, the question of whether TSA down-regulates transcription of both IL-12 p35 and p40 subunit mRNA was investigated. […] Splenocytes were stimulated with LPS and IFN-γ for 6 or 18 hr. […] When splenocytes were preincubated with TSA or SAHA for 18 hr and then stimulated with LPS and IFN-γ IL-12 p35 and p40 transcripts were undetectable (FIGS. 9B–D).

IL-12 p40 protein = IL-12 p40 protein secretion by MRL/lpr splenocytes; assay type: cell-based, mouse; conditions: splenocytes stimulated with LPS and IFN-γ 24 hr; stimulated control 45.3±9.1; p=0.003
Experimental: When splenocytes were activated with LPS (100 μg/ml) and IFN-γ 100U/ml) for 24 hr the mean (±SEM) IL-12 p40 secretion was 45.3±9.1 pg/ml.

IL-6 mRNA = IL-6 mRNA in MRL/lpr splenocytes; assay type: cell-based, mouse; conditions: splenocytes from younger MRL/lpr mice pretreated 18 hr, stimulated 6 or 18 hr
Experimental: (§2) In determining whether TSA or SAHA down-regulate IL-6 mRNA content, splenocytes from 24-wk MRL/lpr mice were treated with increasing concentrations of TSA for 18 hr. […] TSA decreased IL-6 transcript at a concentration of 100 ng/ml and exerted maximal inhibition at 300 ng/ml. To address whether TSA and SAHA down-regulate LPS- and IFN-γ induced IL-6 transcript levels, splenocytes from younger MRL/lpr mice were treated in the absence or presence of TSA or SAHA for 18 hr before LPS and IFN-γ stimulation for 6 or 18 hr. […] Next, the effect of TSA and SAHA on IL-6 protein secretion in stimulated splenocytes was measured (FIG. 10D). When splenocytes were cultured with LPS and IFN-γ for 72 hr, there was a mean (±SEM) 34.4±7.6 pg/ml of IL-6 protein secretion.

IL-6 protein = IL-6 protein secretion by MRL/lpr splenocytes; assay type: cell-based, mouse; conditions: splenocytes with LPS and IFN-γ 72 hr; stimulated control 34.4±7.6 pg/ml; p=0.002
Experimental: as §2

IL-10 mRNA = IL-10 mRNA in MRL/lpr splenocytes; assay type: cell-based, mouse; conditions: splenocytes from 10-wk old MRL/lpr mice pretreated 18 hr, stimulated 6 or 18 hr
Experimental: In investigating whether TSA down-regulates IL-10 mRNA, MRL/lpr splenocytes were treated with increasing concentrations of TSA. The heightened, constitutive expression of IL-10 mRNA confirms previous findings (FIGS. 11A & 11B, lane 1). […] To address whether TSA and SAHA down-regulate LPS- and IFN-γ induced IL-10 transcript, splenocytes from 10-wk old MRL/lpr mice were treated in the absence or presence of TSA or SAHA for 18 hr before LPS and IFN-γ stimulation for 6 or 18 hr.

IL-10 protein = IL-10 protein secretion by MRL/lpr splenocytes; assay type: cell-based, mouse; conditions: MRL/lpr splenocytes stimulated by LPS, Con A, or LPS+IFN-γ, 72 hr
Text: To determine the effect of TSA and SAHA on IL-10 protein secretion, MRL/lpr splenocytes were stimulated with Con A, LPS, or LPS+IFN-γ for 72 hr in the absence or presence of TSA or SAHA. As shown in the FIG. 11D, splenocytes stimulated with Con A, LPS, or LPS+IFN-γ secreted a mean (±SEM) of 31.8±4.5, 32.3±1.9, and 34.8±4.9 pg/ml, respectively, of IL-10 protein.

[3] = system: acetylated H3 and H4 histones; assay: Immunoblot of acetylated H3 and H4 histones in MRL/lpr splenocytes; assay type: cell-based, mouse; conditions: 18 hr exposure
Text: One mechanism by which HDIs suppress transcription of cytokine genes in MRL/lpr splenocytes may be by increasing accumulation of acetylated histones which may result in chromatin remodeling. The accumulation of acetylated histones H3 and H4 in HDI-treated splenocytes was quantified to test this hypothesis. FIG. 12 is an immunoblot analysis of the acetylation levels of H3 and H4 histones.

iNOS mRNA = iNOS mRNA induction in MRL/lpr splenocytes; assay type: cell-based, mouse; conditions: splenocytes from 10 wk old mice, LPS and IFN-γ 24 hr
Text: Excessive production of nitric oxide (NO) is crucial to the initiation and maintenance of glomerulonephritis in MRL/lpr mice. Pharmacologic inhibition of NO synthesis in MRL/lpr mice abrogates disease progression. In examining whether HDIs could suppress inducible nitric oxide synthetase (iNOS), splenocytes from 10 wk old mice were stimulated in the presence or absence of TSA or SAHA with LPS and IFN-γ for 24 hr. […] To determine whether HDIs could suppress nitric oxide secretion by mesangial cells, mesangial cells were stimulated with LPS ([…]) in the presence of vehicle or TSA for 24 hr. The supernatant from the cell culture was assayed for nitric oxide.

CC(=O)NCCCCCCNC(C)=O [HBMA, Hexamethylene bisacetamide]
HDAC inhibition (HDAC): not effective as HDAC Inhibitors

mono-MTM-depudecin
HDAC inhibition (HDAC): do not inhibit HDAC

O=C(CCCCCCC(=O)Nc1ccccc1)NO [SAHA, Suberoylanilide Hydroxamic Acid]
increase in TGF-β1 transcript (TGF-β1 mRNA): eight-fold
rise in the synthesis of TGF-β1 protein (TGF-β1 protein): 30%
accumulation of acetylated H3 and H4 histones [1]: induced the accumulation
optimal dose in dose titration experiments (IFN-γ mRNA; MRL/lpr splenocytes, data not shown): 10 µM
Con A-induced up-regulation of IFN-γ transcript (IFN-γ mRNA; splenocytes from 10-wk old mice preincubated 18 hr, Con A 10 μg/ml 18 hr, vs vehicle): markedly reduced
IFN-γ protein secretion (IFN-γ protein): did not secrete detectable levels
LPS and IFN-γ induced IL-12 p35 and p40 transcripts [2]: undetectable
IL-12 p40 secretion (mean±SEM) (IL-12 p40 protein): 9.1 ± 1.9 pg/mL
LPS- and IFN-γ induced IL-6 mRNA (IL-6 mRNA): no detectable IL-6 mRNA
IL-6 protein secretion (IL-6 protein): no detectable IL-6 protein secretion
LPS- and IFN-γ induced IL-10 mRNA (IL-10 mRNA): no detectable IL-10 mRNA
IL-10 protein secretion (IL-10 protein): no detectable IL-10 secretion
accumulation of acetylated H3 and H4 histones [3]: marked increase
iNOS mRNA induction (iNOS mRNA): able to suppress iNOS mRNA induction

CCOC(=O)C(CCCCCC(=O)N(C)C)(CCCCCC(=O)N(C)C)C(=O)OCC [EMBA, Diethyl bix(pentamethylene-N,N-dimethylcarboxamide) malonate]
HDAC inhibition (HDAC): not effective as HDAC Inhibitors
